Assay results: ChEMBL document CHEMBL6177968, “Development of sulfamoylbenzamide-based capsid assembly modulators for hepatitis B virus capsid assembly” (Eur J Med Chem, 2025)

Tests used:
Hepatitis B virus [1] = assay: Antiviral activity against HBV in human HepG2.2.15 cells assessed as reduction in viral replication incubated for 5 days by real-time PCR analysis; type: functional, organism-based; settings: HepG2.2.15, 120 h
[2] = Cytotoxicity in human HepG2.2.15 cells assessed as reduction in cell viability; type: toxicity, cell-based, HepG2 2.2.15
[3] = Metabolic stability in human liver microsomes assessed as compound remaining measured after 30 mins; type: ADME, Microsome; settings: read-out: Stability
[4] = Metabolic stability in rat liver microsomes assessed as compound remaining measured after 30 mins; type: ADME, Microsome; settings: read-out: Stability
[5] = Selectivity index, ratio of CC50 for cytotoxicity in human HepG2.2.15 cells assessed as reduction in cell viability to EC50 for antiviral activity against HBV in human HepG2.2.15 cells assessed as reduction in viral replication; type: toxicity, cell-based; settings: read-out: Ratio CC50/EC50
[6] = Metabolic stability in mouse liver microsomes assessed as compound remaining measured after 30 mins; type: ADME, Microsome; settings: read-out: Stability
Hepatitis B virus [7] = assay: Antiviral activity against HBV infected in human HepG2 cells expressing NTCP assessed as ratio of capsid associated HBV DNA level at 1 uM incubated for 6 days by Western blot analysis (reference value: 100 %); type: functional; settings: time 6 day
[8] = Selectivity index, ratio of CC50 for cytotoxicity in human HepaRG cells assessed as reduction in cell viability to EC50 for antiviral activity against HBV in human HepaRG cells assessed as reduction in viral replication; type: toxicity, cell-based; settings: read-out: Ratio CC50/EC50
Hepatitis B virus [9] = assay: Antiviral activity against HBV infected in human HepG2 cells expressing NTCP assessed as capsid associated HBV DNA level at 1 uM incubated for 6 days by Western blot analysis (reference value: 100 %); type: functional; settings: time 6 day
[10] = Cytotoxicity in human HepG2-hNTCP cells assessed as reduction in cell viability; type: toxicity, cell-based
Hepatitis B virus [11] = assay: Antiviral activity against HBV infected in human HepG2 cells expressing NTCP assessed as viral DNA replication at 1 uM incubated for 6 days by Southern blot analysis (reference value: 100 %); type: functional; settings: time 6 day
Hepatitis B virus [12] = assay: Antiviral activity against HBV infected in human HepG2 cells expressing NTCP assessed as capsid level at 1 uM incubated for 6 days by Western blot analysis (reference value: 100 %); type: functional; settings: time 6 day
Hepatitis B virus [13] = assay: Antiviral activity against HBV infected in human HepG2 cells expressing NTCP assessed as intracellular HBc level at 1 uM incubated for 6 days by Western blot analysis (reference value: 100 %); type: functional; settings: time 6 day
[14] = Selectivity index, ratio of CC50 for cytotoxicity in human HepG2-hNTCP cells assessed as reduction in cell viability to EC50 for antiviral activity against HBV in human HepG2-hNTCP cells assessed as reduction in viral replication; type: toxicity, cell-based; settings: read-out: Ratio CC50/EC50
[15] = Cytotoxicity in human HepaRG cells assessed as reduction in cell viability; type: toxicity, cell-based
Hepatitis B virus [16] = assay: Antiviral activity against HBV in human HepaRG cells assessed as reduction in viral replication; type: functional, organism-based
Hepatitis B virus [17] = assay: Antiviral activity against HBV in human HepG2 cells expressing NTCP assessed as reduction in viral replication; type: functional, organism-based

| Compound | EC50 (Hepatitis B virus [1]) | CC50 [2] | selectivity ratio [5] | also measured |
| --- | --- | --- | --- | --- |
| Nc1cc(F)c(S(=O)(=O)NCC2COC2)cc1C(=O)Nc1ccc(F)c(C(F)F)c1 | 0.13 µM | 150 µM | 1160 | remaining at 0.5 h [3]: 56.2%; remaining at 0.5 h [4]: 26%; remaining at 0.5 h [6]: 31.9% |
| Nc1cc(F)c(S(=O)(=O)N2CCNCC2)cc1C(=O)Nc1ccc(F)c(F)c1 | 1.19 µM | 31.5 µM | 26.4 |  |
| Nc1cc(F)c(S(=O)(=O)N[C@H]2COC(=O)C2)cc1C(=O)Nc1ccc(F)c(C(F)F)c1 | 2.95 µM | 698 µM | 237 |  |
| C[C@@H](NS(=O)(=O)c1cc(C(=O)Nc2ccc(F)c(C(F)F)c2)c(N)cc1F)C1COC1 | 0.47 µM | 187 µM | 399 |  |
| CN(C1COC1)S(=O)(=O)c1cc(C(=O)Nc2ccc(F)c(C(F)F)c2)c(N)cc1F | 0.07 µM | 7.68 µM | 115 |  |
| N#Cc1cc(NC(=O)c2cc(S(=O)(=O)N3CCOCC3)c(F)cc2N)ccc1F | 3.01 µM | > 900 µM | > 299 |  |
| Nc1cc(F)c(S(=O)(=O)NC2CCOC2)cc1C(=O)Nc1ccc(F)c(F)c1 (centres undefined) | 0.49 µM | 26.3 µM | 53.6 |  |
| Nc1cc(F)c(S(=O)(=O)N2CCCOCC2)cc1C(=O)Nc1ccc(F)c(F)c1 | 0.22 µM | 10.7 µM | 48.6 |  |
| Nc1cc(F)c(S(=O)(=O)NC2CCNC2)cc1C(=O)Nc1ccc(F)c(F)c1 (centres undefined) | 7.52 µM | 109 µM | 14.5 |  |
| Nc1cc(F)c(S(=O)(=O)N2CC3COCC3C2)cc1C(=O)Nc1ccc(F)c(C(F)F)c1 (centres undefined) | 0.1 µM | > 900 µM | > 9330 | remaining at 0.5 h [3]: 0.76%; remaining at 0.5 h [4]: 0.79%; remaining at 0.5 h [6]: 0.09% |
| Cc1cc(NC(=O)c2cc(S(=O)(=O)N3CCOCC3)c(F)cc2N)ccc1F | 4.58 µM | 433 µM | 94.7 |  |
| CC1(CNS(=O)(=O)c2cc(C(=O)Nc3ccc(F)c(C(F)F)c3)c(N)cc2F)COC1 | 0.06 µM | 855 µM | 14300 | remaining at 0.5 h [3]: 23.6%; remaining at 0.5 h [4]: 8.38%; remaining at 0.5 h [6]: 1.37% |
| Nc1cc(F)c(S(=O)(=O)N[C@@H]2CNC2=O)cc1C(=O)Nc1ccc(F)c(C(F)F)c1 | > 30 µM | > 900 µM |  |  |
| Nc1cc(F)c(S(=O)(=O)N2CCOCC2)cc1C(=O)Nc1ccc(F)c(C(F)F)c1 | 0.16 µM | 681 µM | 4240 |  |
| Nc1cc(F)c(S(=O)(=O)N2CC3CCC(C2)O3)cc1C(=O)Nc1ccc(F)c(F)c1 | 0.36 µM | 14 µM | 38.5 |  |
| CC1(NS(=O)(=O)c2cc(C(=O)Nc3ccc(F)c(C(F)F)c3)c(N)cc2F)COC1 | 0.06 µM | 26.1 µM | 458 |  |

| Compound | EC50 (Hepatitis B virus [1]) | CC50 [2] | selectivity ratio [5] | also measured |
| --- | --- | --- | --- | --- |
| Nc1cc(F)c(S(=O)(=O)NC2CCC2)cc1C(=O)Nc1ccc(F)c(C(F)F)c1 | 0.18 µM | 22.8 µM | 125 |  |
| Nc1cc(F)c(S(=O)(=O)N2CCS(=O)(=O)CC2)cc1C(=O)Nc1ccc(F)c(C(F)F)c1 | 0.22 µM | 385 µM | 1740 |  |
| O=C(Nc1cc(F)c(F)c(F)c1)c1ccc(F)c(S(=O)(=O)N2CCC(O)CC2)c1 |  |  |  | Ratio (Hepatitis B virus [7]): 69%; selectivity ratio [8]: 6.15; Activity (Hepatitis B virus [9]): 95%; CC50 [10]: 24.2 µM; Activity (Hepatitis B virus [11]): 61%; Activity (Hepatitis B virus [12]): 136%; Activity (Hepatitis B virus [13]): 82%; selectivity ratio [14]: 75.7; CC50 [15]: 23 µM; EC50 (Hepatitis B virus [16]): 3.74 µM; EC50 (Hepatitis B virus [17]): 0.32 µM |
| Nc1cc(F)c(S(=O)(=O)N2CCOCC2)cc1C(=O)Nc1ccc(F)c(Cl)c1 | > 30 µM | 198 µM |  |  |
| Nc1cc(F)c(S(=O)(=O)N2CC3(COC3)C2)cc1C(=O)Nc1ccc(F)c(C(F)F)c1 | 0.25 µM | > 900 µM | > 3540 |  |
| Nc1cc(F)c(S(=O)(=O)N2CCCOCC2)cc1C(=O)Nc1ccc(F)c(C(F)F)c1 | 0.05 µM | 5.14 µM | 96.2 |  |
| Nc1cc(F)c(S(=O)(=O)N2CCOCC2)cc1C(=O)Nc1ccc(F)c(F)c1 | 0.41 µM | 248 µM | 610 |  |
| Nc1cc(F)c(S(=O)(=O)N[C@@H]2CCOC2=O)cc1C(=O)Nc1ccc(F)c(C(F)F)c1 | 1.61 µM | 238 µM | 147 |  |
| COCCNS(=O)(=O)c1cc(C(=O)Nc2ccc(F)c(F)c2)c(N)cc1F | 3.02 µM | 97 µM | 32.1 |  |
| CC(C)NS(=O)(=O)c1cc(C(=O)Nc2ccc(F)c(F)c2)c(N)cc1F | 0.25 µM | 9.29 µM | 36.8 |  |
| CC(C)(NS(=O)(=O)c1cc(C(=O)Nc2ccc(F)c(C(F)F)c2)c(N)cc1F)C1COC1 | 0.58 µM | 161 µM | 277 | remaining at 0.5 h [3]: 17.2%; remaining at 0.5 h [4]: 5.63%; remaining at 0.5 h [6]: 0.03% |
| Nc1cc(F)c(S(=O)(=O)NC2CCOCC2)cc1C(=O)Nc1ccc(F)c(F)c1 | 1.4 µM | 29.5 µM | 21.1 |  |
| Nc1cc(F)c(S(=O)(=O)N2CC3(COC3)C2)cc1C(=O)Nc1ccc(F)c(F)c1 | 0.44 µM | 170 µM | 386 |  |
| Nc1cc(F)c(S(=O)(=O)NC2CNC2)cc1C(=O)Nc1ccc(F)c(F)c1 | 1.52 µM | 85.8 µM | 56.5 |  |
| C[C@@H](CO)NS(=O)(=O)c1cc(C(=O)Nc2ccc(F)c(F)c2)c(N)cc1F | 2.12 µM | 156 µM | 73.7 |  |
| C[C@H](CO)NS(=O)(=O)c1cc(C(=O)Nc2ccc(F)c(F)c2)c(N)cc1F | 0.69 µM | 204 µM | 296 |  |
